# Data from US8536166B2, “Inhibitors of Burton's tyrosine kinase” (Roche Palo Alto LLC, priority 2008, dated 2013).
# What was measured:
# [1] = target: Btk enzyme (His-tagged, full-length) (Homo sapiens (Human), UniProt Q06187); assay: Bruton's Tyrosine Kinase (Btk) Inhibition Assay; assay type: biochemical; settings: 33P filtration capture assay, 100 μM ATP, 30 μM biotinylated peptide substrate
# Source text: The assay is a capture of radioactive ^33P phosphorylated product through filtration. The interactions of Btk, biotinylated SH2 peptide substrate (Src homology), and ATP lead to phosphorylation of the peptide substrate. Biotinylated product is bound streptavidin sepharose beads. All bound, radiolabeled products are detected by scintillation counter.
# Plates assayed are 96-well polypropylene (Greiner) and 96-well 1.2 μm hydrophilic PVDF filter plates (Millipore). Concentrations reported here are final assay concentrations: 10-100 μM compounds in DMSO (Burdick and Jackson), 5-10 nM Btk enzyme (His-tagged, full-length), 30 μM peptide substrate (Biotin-Aca-AAAEEIYGEI-NH2), 100 μM ATP (Sigma), 8 mM imidazole (Sigma, pH 7.2), 8 mM glycerol-2-phosphate (Sigma), 200 μM EGTA (Roche Diagnostics), 1 mM MnCl2 (Sigma), 20 mM MgCl2 (Sigma), 0.1 mg/ml BSA (Sigma), 2 mM DTT (Sigma), 1 μCi ^33P ATP (Amersham), 20% streptavidin sepharose beads (Amersham), 50 mM EDTA (Gibco), 2 M NaCl (Gibco), 2 M NaCl w/1% phosphoric acid (Gibco), microscint-20 (Perkin Elmer).
# IC50 determinations are calculated from 10 data points per compound utilizing data produced from a standard 96-well plate assay template. One control compound and seven unknown inhibitors were tested on each plate and each plate was run twice. Typically, compounds were diluted in half-log starting at 100 μM and ending at 3 nM. The control compound was staurosporine. Background was counted in the absence of peptide substrate. Total activity was determined in the presence of peptide substrate. The following protocol was used to determine Btk inhibition. • 1) Sample preparation: The test compounds were diluted at half-log increments in assay buffer (imidazole, glycerol-2-phosphate, EGTA, MnCl2, MgCl2, BSA). • 2) Bead preparation • a.) rinse beads by centrifuging at 500 g • b.) reconstitute the beads with PBS and EDTA to produce a 20% bead slurry • 3) Pre-incubate reaction mix without substrate (assay buffer, DTT, ATP, ^33P ATP) and mix with substrate (assay buffer, DTT, ATP, ^33P ATP, peptide substrate) 30° C. for 15 mm. • 4) To start assay, pre-incubate 10 μL Btk in enzyme buffer (imidazole, glycerol-2-phosphate, BSA) and 10 μL of test compounds for 10 min at RT. • 5) Add 30 μL reaction mixture without or with substrate to Btk and compounds. • 6) Incubate 50 μL total assay mix for 30 min at 30° C. • 7) Transfer 40 μL of assay to 150 μL bead slurry in filter plate to stop reaction. • 8) Wash filter plate after 30 min, with following steps • a. 3×250 μL NaCl • b. 3×250 μL NaCl containing 1% phosphoric acid • c. […]
# Sequence of Btk enzyme (His-tagged, full-length) (Q06187 whole entry): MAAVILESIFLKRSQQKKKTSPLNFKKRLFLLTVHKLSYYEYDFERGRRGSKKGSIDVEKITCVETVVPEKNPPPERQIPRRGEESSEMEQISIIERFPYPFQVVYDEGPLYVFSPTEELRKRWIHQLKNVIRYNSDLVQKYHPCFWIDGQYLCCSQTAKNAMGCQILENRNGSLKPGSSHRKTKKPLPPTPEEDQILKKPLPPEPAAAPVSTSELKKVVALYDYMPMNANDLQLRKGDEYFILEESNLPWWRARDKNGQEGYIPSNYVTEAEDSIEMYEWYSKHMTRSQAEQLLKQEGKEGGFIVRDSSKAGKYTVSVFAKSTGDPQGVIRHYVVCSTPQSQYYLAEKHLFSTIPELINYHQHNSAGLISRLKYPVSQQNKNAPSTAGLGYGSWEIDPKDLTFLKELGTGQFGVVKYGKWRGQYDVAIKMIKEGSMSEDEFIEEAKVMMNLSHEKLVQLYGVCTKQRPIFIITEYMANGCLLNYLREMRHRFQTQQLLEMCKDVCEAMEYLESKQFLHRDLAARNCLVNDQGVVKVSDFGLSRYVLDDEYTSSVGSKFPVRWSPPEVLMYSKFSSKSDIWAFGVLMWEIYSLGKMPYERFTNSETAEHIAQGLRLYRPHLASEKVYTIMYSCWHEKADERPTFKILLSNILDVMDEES
SMILES,melting point,IC50 [1]
"CN(CCO)C(=O)c1ccc(Nc2nc(-c3cccc(N4CCc5cc(C6CC6)ccc5C4=O)c3CO)cn(C)c2=O)cc1 [II-15, 4-{6-[3-(6-Cyclopropyl-1-oxo-3,4-dihydro-1H-isoquinolin-2-yl)-2-hydroxymethyl-phenyl]-4-methyl-3-oxo-3,4-dihydro-pyrazin-2-ylamino}-N-(2-hydroxy-ethyl)-N-methyl-benzamide]",115 to 117 °C,
"CN(C)c1ccc2c(c1)CCN(c1cccc(-c3cn(C)c(=O)c(Nc4ccc5c(c4)OC(F)(F)O5)n3)c1CO)C2=O [II-1, 2-{3-[6-(2,2-Difluoro-benzo[1,3]dioxol-5-ylamino)-4-methyl-5-oxo-4,5-dihydro-pyrazin-2-yl]-2-hydroxymethyl-phenyl}-6-dimethylamino-3,4-dihydro-2H-isoquinolin-1-one]",145 to 150 °C,
"Cn1cc(Nc2nc(-c3cccc(N4CCc5cc(C6CC6)ccc5C4=O)c3CO)cn(C)c2=O)cn1 [II-5, 6-Cyclopropyl-2-{2-hydroxymethyl-3-[4-methyl-6-(1-methyl-1H-pyrazol-4-ylamino)-5-oxo-4,5-dihydro-pyrazin-2-yl]-phenyl}-3,4-dihydro-2H-isoquinolin-1-one]",,16 nM
"Cn1cc(-c2cccc(N3CCc4cc(C5(F)CC5)ccc4C3=O)c2CO)nc(Nc2ccc(C(=O)N3CCOCC3)cc2)c1=O [II-11, 6-(1-Fluoro-cyclopropyl)-2-(2-hydroxymethyl-3-{4-methyl-6-[4-(morpholine-4-carbonyl)-phenylamino]-5-oxo-4,5-dihydro-pyrazin-2-yl}-phenyl)-3,4-dihydro-2H-isoquinolin-1-one]",172 to 174 °C,10 nM
"CC1CN(C(=O)c2ccc(Nc3nc(-c4cccc(N5CCc6cc(C7CC7)ccc6C5=O)c4CO)cn(C)c3=O)cc2)CC(C)O1 (centres unmarked) [II-17, 6-Cyclopropyl-2-(3-{6-[4-(2,6-dimethyl-morpholine-4-carbonyl)-phenylamino]-4-methyl-5-oxo-4,5-dihydro-pyrazin-2-yl}-2-hydroxymethyl-phenyl)-3,4-dihydro-2H-isoquinolin-1-one]",173 to 175 °C,
"CN(C)C(=O)c1ccc(Nc2nc(-c3cccc(N4CCc5cc(C6CC6)ccc5C4=O)c3CO)cn(C)c2=O)cc1 [II-6, 4-{6-[3-(6-Cyclopropyl-1-oxo-3,4-dihydro-1H-isoquinolin-2-yl)-2-hydroxymethyl-phenyl]-4-methyl-3-oxo-3,4-dihydro-pyrazin-2-ylamino}-N,N-dimethyl-benzamide]",,15 nM

# Continued, values first:
melting point,IC50 [1],SMILES
171 to 173 °C,10 nM,"Cn1cc(-c2cccc(N3CCc4cc(C5CC5)ccc4C3=O)c2CO)nc(Nc2ccc(C(=O)N3CCC(O)CC3)cc2)c1=O [II-12, 6-Cyclopropyl-2-(2-hydroxymethyl-3-{6-[4-(4-hydroxy-piperidine-1-carbonyl)-phenylamino]-4-methyl-5-oxo-4,5-dihydro-pyrazin-2-yl}-phenyl)-3,4-dihydro-2H-isoquinolin-1-one]"
146 to 148 °C,,"COC1CCN(C(=O)c2ccc(Nc3nc(-c4cccc(N5CCc6cc(C7CC7)ccc6C5=O)c4CO)cn(C)c3=O)cc2)CC1 [II-13, 6-Cyclopropyl-2-(2-hydroxymethyl-3-{6-[4-(4-methoxy-piperidine-1-carbonyl)-phenylamino]-4-methyl-5-oxo-4,5-dihydro-pyrazin-2-yl}-phenyl)-3,4-dihydro-2H-isoquinolin-1-one]"
178 to 180 °C,,"Cn1cc(-c2cccc(N3CCc4cc(C5CC5)ccc4C3=O)c2CO)nc(Nc2ccc(C(=O)N3CCCC3)cc2)c1=O [II-10, 6-Cyclopropyl-2-(2-hydroxymethyl-3-{4-methyl-5-oxo-6-[4-(pyrrolidine-1-carbonyl)-phenylamino]-4,5-dihydro-pyrazin-2-yl}-phenyl)-3,4-dihydro-2H-isoquinolin-1-one]"
153 to 155 °C,,"CCN1CCN(C(=O)c2ccc(Nc3nc(-c4cccc(N5CCc6cc(C7CC7)ccc6C5=O)c4CO)cn(C)c3=O)cc2)CC1 [II-20, 6-Cyclopropyl-2-(3-{6-[4-(4-ethyl-piperazine-1-carbonyl)-phenylamino]-4-methyl-5-oxo-4,5-dihydro-pyrazin-2-yl}-2-hydroxymethyl-phenyl)-3,4-dihydro-2H-isoquinolin-1-one]"
175 to 180.1 °C,,"Cn1cc(-c2cccc(N3CCc4cc(C5CC5)ccc4C3=O)c2CO)nc(Nc2ccc(C(=O)N3CCN(CCO)CC3)cc2)c1=O [II-16, 6-Cyclopropyl-2-[3-(6-{4-[4-(2-hydroxy-ethyl)-piperazine-1-carbonyl]-phenylamino}-4-methyl-5-oxo-4,5-dihydro-pyrazin-2-yl)-2-hydroxymethyl-phenyl]-3,4-dihydro-2H-isoquinolin-1-one]"
172 to 175 °C,,"CN1CCN(C(=O)c2ccc(Nc3nc(-c4cccc(N5CCc6cc(C7CC7)ccc6C5=O)c4CO)cn(C)c3=O)cc2)CC1 [II-14, 6-Cyclopropyl-2-(2-hydroxymethyl-3-{4-methyl-6-[4-(4-methyl-piperazine-1-carbonyl)-phenylamino]-5-oxo-4,5-dihydro-pyrazin-2-yl}-phenyl)-3,4-dihydro-2H-isoquinolin-1-one]"
